Test results as given in patent US9969744B2, “Compounds for use in cognition improvement” (FUNDACIÓN PARA LA INVESTIGACIÓN MÉDICA APLICADA, priority 2014, dated 2018).

Tests used:
[1] = biological target: T1, PDE5A1 (Homo sapiens, UniProt O76074); assay: PDE enzyme activity assay (HTRF cGMP), PDE5A; format: biochemical; details: recombinant enzyme; read-out: PDE5A1 inhibition (IC50)
T1 construct: they are full-length with N-terminal GST tag; GST (N); purchased BPS Biosciences 60050; host or cells: baculovirus infected Sf9 cells

[2] = tested on: acetylated histone 3 at Lys9 (AcH3K9); assay: HDAC activity using SHSY-5Y cell line (Western blot, histone 3 acetylation); format: cell-based, human; set-up: key: basal x1 means no increment (+); basal x1.4≤(++)<basal x2; basal x2≤(+++)<basal x3; basal x3≤(++++); N.E. means No Effect; details: SHSY-5Y cells, 24 hours
Protocol: HDAC inhibition leads to the corresponding functional response, increase in AcH3 level. Therefore, the cellular assay to conclude HDAC activity was assessed by Western blot analysis using specific antibodies against acetylated histone 3 at Lys9 (AcH3K9). Cell cultures were treated at 100 nM, 500 nM, 1 μM and/or 5 μM with compounds of the invention or known PDE inhibitors during 24 hours and, Table 1 (below) describes the functional activity: histone 3 acetylation level (AcH3) vs basal (no treatment).
A human neuroblastoma cell line (SHSY-5Y) was used. Cell line was obtained from ATCC (CRL-2266) and cultured in 35 mm plates (Becton Dickinson, NJ).
The cells were grown to 90% confluence at 37° C. in an atmosphere of 5% CO2 and in Dulbecco's modified Eagle's medium supplemented with Glutamax (Gibco, Invitrogen, CA), 100 units/ml penicillin/streptomycin, 1×MEM nonessential amino acids and 10% fetal bovine serum (Gibco, Invitrogen, CA).
Cells were collected and sonicated in a buffer containing a cold lysis buffer with protease inhibitors (0.2 M NaCl, 0.1 M HEPES (4-(2-hydroxyethyl)-1-piperazineethanesulfonic acid), 10% glycerol, 200 mM NaF, 2 mM Na4P2O7, 5 mM EDTA (ethylenediaminetetraacetic acid), 1 mM EGTA (ethylene glycol tetraacetic acid), 2 mM DTT (dithiothreitol), 0.5 mM PMSF (phenylmethylsulfonyl fluoride), 1 mM Na3VO4 and Complete Protease Inhibitor Cocktail, Roche Diagnostics), centrifuged at 14,000×g 4° C. for 20 min and the supernatant was aliquoted and stored at −80° C. Total protein concentrations were determined using the BioRad Bradford protein assay (BioRad Laboratories).
Protein samples were mixed with Laemmli sample buffer, resolved onto Sodium Dodecyl Sulfate (SDS)-polyacrylamide gels and transferred to nitrocellulose membrane. The membranes were blocked with 5% milk, 0.05% Tween-20 in PBS (Phosphate-Buffered Saline) or TBS (Tris-Buffered Saline) followed by overnight incubation with the following primary antibodies: rabbit polyclonal anti-acetylated Histone 3 (acetyl K9) (Cell Signalling Technology), rabbit polyclonal anti-total Histone 3 (Millipore), in the corresponding buffer. All the antibodies were used at 1:1000 dilution except the mouse monoclonal anti-β-actin which was used at 1:50.000. Following two washes in TBS/Tween20 and one wash in TBS alone, immunolabeled protein bands were detected by using HRP-conjugated anti-rabbit or anti-mouse antibody (Santa Cruz Biotechnology; dilution 1:5.000) following an enhanced chemiluminescence system (ECL, GE Healthcare Bioscience, Buckinghamshire, UK), and autoradiographic exposure to HyperfilmtECL (GE Healthcare Bioscience). Quantity One™ software v.4.6.3 (Bio-Rad) was used for quantification.

[3] = tested on: AcH3; assay: In-vivo AcH3 in hippocampus of wild type mice; details: single dose of 12.5 mg/Kg i.p.
Protocol: (§1) Another group of animals received the vehicle (1/1/8, v:v:v, DMSO/Tween 20/saline). One hour later, mice were sacrificed by cervical dislocation and their hippocampus was quickly dissected from the brains. Total tissue homogenates were obtained by homogenizing the hippocampus in a cold lysis buffer with protease inhibitors (0.2 M NaCl, 0.1 M HEPES, 10% glycerol, 200 mM NaF, 2 mM Na4P2O7, 5 mM EDTA, 1 mM EGTA, 2 mM DTT, 0.5 mM PMSF, 1 mM Na3VO4 and Complete Protease Inhibitor Cocktail, Roche Diagnostics). The homogenate was then centrifuged at 14,000×g at 4° C. for 20 min and the supernatant aliquoted and stored at −80° C. Total protein concentrations were determined using the BioRad Bradford protein assay (BioRad Laboratories). Protein samples were analyzed as described in the “in vitro” section.

[4] = tested on: pCREB; assay: In-vivo pCREB in hippocampus of wild type mice; set-up: key: basal x1 means no increment (+); basal x1.4≤(++)<basal x2; basal x2≤(+++)<basal x3; basal x3≤(++++); N.E. means No Effect; details: single dose of 12.5 mg/Kg i.p.
Protocol: as §1

[5] = biological target: T2, PDE9A (Homo sapiens, UniProt O76083); assay: PDE enzyme activity assay (HTRF cGMP), PDE9A; format: biochemical; details: recombinant enzyme; read-out: PDE9A inhibition (IC50)
T2 construct: they are full-length with N-terminal GST tag; GST (N); purchased BPS Biosciences 60090; host or cells: baculovirus infected Sf9 cells
T2 sequence (O76083 1-533 isoform O76083-2): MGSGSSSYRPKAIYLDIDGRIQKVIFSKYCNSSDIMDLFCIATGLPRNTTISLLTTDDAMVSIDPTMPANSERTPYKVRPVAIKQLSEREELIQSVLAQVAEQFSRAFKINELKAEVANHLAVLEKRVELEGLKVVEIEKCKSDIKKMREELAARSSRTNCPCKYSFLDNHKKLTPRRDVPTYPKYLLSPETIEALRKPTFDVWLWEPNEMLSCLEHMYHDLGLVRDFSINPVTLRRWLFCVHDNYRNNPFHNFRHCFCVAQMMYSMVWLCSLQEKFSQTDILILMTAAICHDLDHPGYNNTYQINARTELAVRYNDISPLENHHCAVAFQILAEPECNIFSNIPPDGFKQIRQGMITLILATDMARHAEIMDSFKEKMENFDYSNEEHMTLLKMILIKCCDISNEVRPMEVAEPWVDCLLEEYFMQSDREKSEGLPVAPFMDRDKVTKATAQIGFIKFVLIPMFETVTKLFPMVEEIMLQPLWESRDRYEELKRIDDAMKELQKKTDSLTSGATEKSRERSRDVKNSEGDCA

SMILES	IC50 [1]	AcH3: increment in Histone 3 acetylation level vs basal ([2]; compound concentration 1 μM)	AcH3 increment vs basal [3]	pCREB increment vs basal [4]	IC50 [5]	AcH3: increment in Histone 3 acetylation level vs basal ([2]; compound concentration 5 μM)
CCCc1nn(C)c2c(=O)[nH]c(-c3cc(CC(=O)Nc4ccccn4)ccc3OCC)nc12 [Example 1-15, 2-[4-ethoxy-3-(1-methyl-7-oxo-3-propyl-6H-pyrazolo[4,3-d]pyrimidin-5-yl)phenyl]-N-(2-pyridyl)acetamide]	10 to 1000 nM	++ (basal x1.4≤(++)<basal x2)				
CCCc1nn(C)c2c(=O)[nH]c(-c3cc(Cc4ccc(C(=O)Nc5cc(-c6cccs6)ccc5N)cc4)ccc3OCC)nc12 [Example 1-13, N-[2-amino-5-(2-thienyl)phenyl]-4-[[4-ethoxy-3-(1-methyl-7-oxo-3-propyl-6H-pyrazolo[4,3-d]pyrimidin-5-yl)phenyl]methyl]benzamide]	1000 to 10000 nM	++ (basal x1.4≤(++)<basal x2)				
CCCc1nc(C)c2c(=O)[nH]c(-c3cc(CC4CC(C(=O)Nc5ccccc5N)C4)ccc3OCC)nn12 (racemic) [Example 2-04, N-(2-aminophenyl)-3-[[4-ethoxy-3-(5-methyl-4-oxo-7-propyl-3H-imidazo[5,1-f][1,2,4]triazin-2-yl)phenyl]methyl]cyclobutanecarboxamide]	< 10 nM	++++ (basal x3≤(++++))				
CCCc1nn(C)c2c(=O)[nH]c(-c3cc(S(=O)(=O)N4CCN(C)CC4)ccc3OCC)nc12 [Sildenafil, reference compound]		N.E.				
CCCc1nc(C)c2c(=O)[nH]c(-c3cc(Cc4ccc(C(=O)Nc5cscc5N)cc4)ccc3OCC)nn12 [Example 2-07, N-(4-amino-3-thienyl)-4-[[4-ethoxy-3-(5-methyl-4-oxo-7-propyl-3H-imidazo[5,1-f][1,2,4]triazin-2-yl)phenyl]methyl]benzamide]	10 to 1000 nM	++ (basal x1.4≤(++)<basal x2)				
O=C(CCCCCCC(=O)Nc1ccccc1)NO [Vorinostat]	> 10000 nM	++++ (basal x3≤(++++))	+++ (basal x2≤(+++)<basal x3)	N.E.	> 10000 nM	
CCCc1nn(C)c2c(=O)[nH]c(-c3cc(S(=O)(=O)NC4CCN(c5ncc(C(=O)Nc6ccccc6N)cn5)CC4)ccc3OCC)nc12 [Example 1-02]	10 to 1000 nM	+++ (basal x2≤(+++)<basal x3)				
CCCc1nn(C)c2c(=O)[nH]c(-c3cc(C4CCC(C(=O)Nc5ccccc5N)CC4)ccc3OCC)nc12 (racemic) [Example 1-05, N-(2-aminophenyl)-4-[4-ethoxy-3-(1-methyl-7-oxo-3-propyl-6H-pyrazolo[4,3-d]pyrimidin-5-yl)phenyl]cyclohexanecarboxamide]	10 to 1000 nM	+++ (basal x2≤(+++)<basal x3)				
CCCc1nn(C)c2c(=O)[nH]c(-c3cc(CC4CC(C(=O)Nc5ccccc5N)C4)ccc3OCC)nc12 (racemic) [Example 1-04, N-(2-aminophenyl)-3-[[4-ethoxy-3-(1-methyl-7-oxo-3-propyl-6H-pyrazolo[4,3-d]pyrimidin-5-yl)phenyl]methyl]cyclobutanecarboxamide]	10 to 1000 nM	++++ (basal x3≤(++++))				
CCCc1nn(C)c2c(=O)[nH]c(-c3cc(S(=O)(=O)N4CCN(c5ncc(C(=O)Nc6ccccc6N)cn5)CC4)ccc3OCC)nc12 [Example 1-01, N-(2-aminophenyl)-2-[4-[4-ethoxy-3-(1-methyl-7-oxo-3-propyl-6H-pyrazolo[4,3-d]pyrimidin-5-yl)phenyl]sulfonylpiperazin-1-yl]pyrimidine-5-carboxamide]	10 to 1000 nM	+++ (basal x2≤(+++)<basal x3)				
CCCc1nc(C)c2c(=O)[nH]c(-c3cc(S(=O)(=O)N4CCN(c5ncc(C(=O)Nc6ccccc6N)cn5)CC4)ccc3OCC)nn12 [Example 2-02, N-(2-aminophenyl)-2-[4-[4-ethoxy-3-(5-methyl-4-oxo-7-propyl-3H-imidazo[5,1-f][1,2,4]triazin-2-yl)phenyl]sulfonylpiperazin-1-yl]pyrimidine-5-carboxamide]	< 10 nM	++++ (basal x3≤(++++))				
CCCc1nn(C)c2c(=O)[nH]c(-c3cc(Cc4ccc(C(=O)N5CCNC(=O)C5)cc4)ccc3OCC)nc12 [Example 1-19]	10 to 1000 nM	++ (basal x1.4≤(++)<basal x2)				
CCCc1nn(C)c2c(=O)[nH]c(-c3cc(C4CCC(C(=O)Nc5ccccc5N)CC4)ccc3OCC)nc12 (stereo not shown) [Example 1-06, N-(2-aminophenyl)-4-[4-ethoxy-3-(1-methyl-7-oxo-3-propyl-6H-pyrazolo[4,3-d]pyrimidin-5-yl)phenyl]cyclohexanecarboxamide]	10 to 1000 nM	+++ (basal x2≤(+++)<basal x3)				
CCCc1nn(C)c2c(=O)[nH]c(-c3cc(Cc4ccc(C(=O)Nc5ccccc5N)s4)ccc3OCC)nc12 [Example 1-08]	10 to 1000 nM	++++ (basal x3≤(++++))				
C[C@@H]1CN(Cc2ccc(C(=O)Nc3ccccc3N)cc2)C[C@H]1c1nc2c(cnn2C2CCCC2)c(=O)[nH]1 (racemic) [Example 3-01, N-(2-aminophenyl)-4-[[(3S,4S)-3-(1-cyclopentyl-4-oxo-5H-pyrazolo[3,4-d]pyrimidin-6-yl)-4-methyl-pyrrolidin-1-yl]methyl] benzamide]		++ (basal x1.4≤(++)<basal x2)			10 to 1000 nM	
CCCc1nc(C)c2c(=O)[nH]c(-c3cc(S(=O)(=O)NC4CCN(c5ncc(C(=O)Nc6ccccc6N)cn5)CC4)ccc3OCC)nn12 [Example 2-03]	< 10 nM	++ (basal x1.4≤(++)<basal x2)				
Nc1ccccc1NC(=O)c1cnc(N2CCC(CN3CC(=O)N4C(Cc5c([nH]c6ccccc56)C4c4ccc5c(c4)OCO5)C3=O)CC2)nc1 (racemic) [Example 4-01, N-(2-aminophenyl)-2-(4-((6-(benzo[d][1,3]dioxol-5-yl)-1,4-dioxo-3,4,6,7,12,12a-hexahydropyrazino[1′,2′:1,6]pyrido[3,4-b]indol-2(1H)-yl)methyl)piperidin-1-yl)pyrimidine-5-carboxamide]	1000 to 10000 nM					++ (basal x1.4≤(++)<basal x2)
CCCc1nn(C)c2c(=O)[nH]c(-c3cc(S(=O)(=O)NCc4ccc(C(=O)Nc5ccccc5N)cc4)ccc3OCC)nc12 [Example 1-03]	10 to 1000 nM	++++ (basal x3≤(++++))				
CCCc1nn(C)c2c(=O)[nH]c(-c3cc(Cc4ccc(C(=O)Nc5cscc5N)cc4)ccc3OCC)nc12 [Example 1-20]	1000 to 10000 nM	++ (basal x1.4≤(++)<basal x2)				
